For experiment [1], the system named is PD-L1 aAPC/CHO-K1 cells and Jurkat-PD-1-NFAT effector cells. Description: Nuclear factor of activated T-cells (NFAT) assay. It is filed as cell-based. The method, then: The culture media of PD-L1 aAPC/CHO-K1 cells were first replaced with assay medium (RPMI1640 medium with 1% FBS). […] The assay plate was incubated at 37° C., 5% CO2 for 24 hours. […] After 8 minutes incubation at room temperature, luminescence was read at with Pherastar microplate reader (BMG Labtech). The fold of induction (FOI) was calculated based on the ratio of luminescence normalized to the DMSO wells within each assay plate. The maximum percentage of induction was reported based on the ratio between the highest FOI of each compound and the maximum FOI of control compound within each assay plate. Wells with DMSO were served as the negative controls and wells containing control compound with the highest FOI were used as positive controls. EC50 determination was performed by fitting the curve of percent control activity versus the log of the compound concentration using the GraphPad Prism 6.0 software.

Experiment [2] concerns U2OS/PD-L1 cells and Jurkat-PD-1-SHP cells. In words: Src homology region 2 domain-containing phosphatase (SHP) assay. It is filed as cell-based. The following applies: Homo sapiens. The method, then:
Example B. Src Homology Region 2 Domain-Containing Phosphatase (SHP) Assay
U2OS/PD-L1 cells (DiscoveRx Corporation) were maintained in McCoy's 5A medium with addition of 10% FBS, 0.25 μg/ml Puromycin. After removing the culture media, the cell medium was replaced with assay medium (RPMI1640 medium with 1% FBS). The U2OS/PD-L1 cells were then added in 384-well black clear bottom assay plate (CELLCOAT® Tissue Culture Plates, Greiner Bio-One) at 5000 cells per well in 20 μL assay medium. Test compounds were prepared by serial dilution in DMSO and 125 nL compound were first transferred to the 384 REMP plate well (Thermofisher) by ECHO liquid handler (Labcyte) followed with addition of 27.5 μL assay medium. 5 μL/well compounds in the assay medium were transferred to the cell plate with 0.05% DMSO in the final assay at 0.25 Jurkat-PD-1-SHP cells (DiscoveRx Corporation) were cultured in RPMI1640 medium supplemented with 10% FBS, 250 μg/ml Hygromycin B, 500 μg/ml G418. After the replacement of culture media with assay medium, 5,000 Jurkat-PD-1-SHP cells in 20 μL were dispensed into each well. The assay plate was incubated at 37° C., 5% CO2 for 2 hours before 2.5 μL PathHunter reagent 1 (DiscoveRx Corporation) were added to each well. […] Chemiluminescent signal was recorded with TopCount reader (Perkin Elmer) after incubation at room temperature for 1 hour. […]

pEC50, pIC50: −log10 of the molar value.

Usually pEC50 stands for the EC50 on a negative log10 scale, so that one unit is a factor of ten. Lower therefore signals a high EC50. Usually pIC50 stands for −log10 of the IC50, conventionally taken in molar units.

In the case of `Cn1c(C(=O)Nc2cccc(-c3cccc(NC(=O)c4nc5c(n4C)CCN(CC(C)(C)C(=O)O)C5)c3Cl)c2Cl)nc2c1CCN(CCC13CCC(C(=O)O)(CC1)C3)C2` [Example 21, 4-(2-(2-((3′-(5-(2-carboxy-2-methylpropyl)-1-methyl-4,5,6,7-tetrahydro-1H-imidazo[4,5-c]pyridine-2-carboxamido)-2,2′-dichloro-[1,1′-biphenyl]-3-yl)carbamoyl)-1-methyl-1,4,6,7-tetrahydro-5H-imidazo[4,5-c]pyridin-5-yl)ethyl)bicyclo[2.2.1]heptane-1-carboxylic acid], in experiment [1], the pEC50 is 7.00 to 8.00. With `Cn1c(C(=O)Nc2cccc(-c3cccc(NC(=O)c4nc5c(n4C)CCN(CCC46CCC(C(=O)O)(CC4)C6)C5)c3Cl)c2Cl)nc2c1CCN(CCCCC(=O)O)C2` [Example 63, 4-(2-(2-((3′-(5-(4-carboxybutyl)-1-methyl-4,5,6,7-tetrahydro-1H-imidazo[4,5-c]pyridine-2-carboxamido)-2,2′-dichloro-[1,1′-biphenyl]-3-yl)carbamoyl)-1-methyl-1,4,6,7-tetrahydro-5H-imidazo[4,5-c]pyridin-5-yl)ethyl)bicyclo[2.2.1]heptane-1-carboxylic acid], in experiment [2], the pIC50 is no less than 8.00.

These data come from patent publication US10906920B2, “Heterocyclic compounds as immunomodulators” (Incyte Corporation, priority 2018, dated 2021).
